From US9241493B2, “Use of an enaminocarbonyl compound in combination with a biological control agent” (BAYER INTELLECTUAL PROPERTY GMBH, priority 2011, dated 2016)

Columns and labels:
Type in all cases: in vivo
[1] = test system: Green peach aphid (Myzus persicae); test: Myzus persicae test, foliar application on infested cabbage leaves; conditions: 144 h, 100 g ai/ha, foliar spray, 6 d, read-out: Mortality in % after 6 d
Experimental: Myzus persicae—Foliar Application
(§1) To produce a suitable preparation of active compound, 1 part by weight of active compound is mixed with the stated amount of solvent and emulsifier, and the concentrate is diluted with emulsifier-containing water to the desired concentration. To produce a suitable preparation of a biological suspension the cells or spores are diluted with emulsifier-containing water to the desired concentration.
Cabbage leaves (Brassica oleracea) which are heavily infested by the Green peach aphid (Myzus persicae) are treated by being sprayed with the preparation of the active compound at the desired concentration.
After the specified period of time, mortality in % is determined. 100% means that all the aphids have been killed; 0% means that none of the aphids have been killed. The mortality values thus determined are recalculated using the Colby-formula.

[2] = test system: Green peach aphid (Myzus persicae); test: Myzus persicae test, spray application on Chinese cabbage leaf discs; conditions: foliar, 24 h, 20 g ai/ha, 1 d, read-out: Mortality in % after 1 d
Experimental: Myzus persicae—Test (Spray Application)
as §1
Chinese cabbage (Brassica pekinesis) leaf—discs infected with all instars of the green peach aphid (Myzus persicae), are sprayed with a preparation of the active ingredient at the desired concentration.
After the specified period of time mortality in % is determined. 100% means that all aphids have been killed; 0% means that none of the aphids have been killed.

[3] = test system: larvae of the mustard beetle (Phaedon cochleariae); test: Phaedon cochleariae larvae test, foliar application on cabbage leaves; conditions: 48 h, 60 g ai/ha, foliar spray, 2 d, read-out: Mortality in % after 2 d
Experimental: Phaedon cochleariae Larvae—Foliar Application
as §1, with “spore” for “biological”, “the” for “the cells or”
Cabbage leaves (Brassica oleracea) are treated by being sprayed with the preparation of the active compound of the desired concentration and are infested with larvae of the mustard beetle (Phaedon cochleariae) as long as the leaves are still moist.
(§2) After the specified period of time, mortality in % is determined. 100% means that all the beetle larvae have been killed; 0% means that none of the beetle larvae have been killed. The mortality values thus determined are recalculated using the Colby-formula.

[4] = test system: mustard beetle larvae (Phaedon cochleariae); test: Phaedon cochleariae larvae test, spray application on Chinese cabbage leaf discs; conditions: foliar, 144 h, 100 g ai/ha, 6 d, read-out: Mortality in % after 6 d
Experimental: Phaedon cochleariae Larvae—Spray Application
as §1, with “cells, viruses” for “cells”
Chinese cabbage (Brassica pekinesis) leaf—discs are sprayed with a preparation of the active ingredient of the desired concentration. Once dry, the leaf discs are infested with mustard beetle larvae (Phaedon cochleariae).
as §2

[5] = test system: larvae of the Banded Cucumber Beetle (Diabrotica balteata); test: Diabrotica balteata larvae test, soil application, corn; conditions: 60 g ai/ha, mixed into soil, based on number of germinated corn plants
Experimental: Diabrotica balteata Test/Larvae—Soil Application
as §1, with “spore” for “biological”, “the” for “the cells or”
The preparation containing the active ingredient is thoroughly mixed into the soil. […] The treated soil is filled into pots and sown with 5 corn seeds per pot. 3 days after sowing larvae of the Banded Cucumber Beetle (Diabrotica balteata) are placed in the soil.
After the desired period of time the level of activity expressed in % is determined. The level of activity is calculated on the basis of the number of corn plants which have successfully germinated. The efficacy values determined thus are recalculated using the Colby-formula.

[6] = test system: Seeds of soybean (Glycine max); test: Seed treatment, germination test soybean; conditions: 0.3 g ai/kg seeds (head: g ai/kg seeds)
Experimental: Seed Treatment—Germination Test Soybean
Seeds of soybean (Glycine max) were treated by being mixed with the desired amount of active compound and spores and water. After drying, 25 seeds were sown into each pot filled with sandy loam.
After 4 days the level of activity expressed in % was determined. The level of activity was calculated on the basis of the number of soybean plants which have successfully germinated.

## O=C1C=C(N(Cc2ccc(Cl)nc2)CC(F)F)CO1 [Compound (I-3), 4-{[(6-Chloropyrid-3-yl)methyl](2,2-difluorethyl)amino}furan-2(5H)-one]
[1]
  mortality at 100 g/ha: 90%
[2]
  mortality at 20 g/ha: 0%
[3]
  mortality at 60 g/ha: 20%
[4]
  mortality at 100 g/ha: 0%
[5]
  Efficacy in % after 5 d: 75%
[6]
  Germination in % related to untreated control, evaluation after 4 d: 72.73%
